A short description of data set [1]: Human Microsomal Stability Assay. The format is in vitro ADME. To be noted: human microsomes (Xenotech); human microsomes 1 mg protein/mL, compound 2.5 μM, NADPH 2 mM, pH 7.4, 37° C.; read-out: Intrinsic clearance. As for the experimental part:
Human Microsomal Stability Assay
Samples at four time-points (0, 5, 15 and 30 minutes) are withdrawn and the enzymatic reaction is terminated by protein precipitation with 1% acetic acid in acetonitrile. The incubations are performed on a thermostated plate (37° C.) placed on a Tecan worktable, and all liquid handling was performed robotically. After centrifugation of the samples, the supernatants are pooled in sets of four before they are analysed by liquid chromatography with tandem mass spectrometry detection (LC/MS/MS) using multiple reaction monitoring (MRM). Data are presented as intrinsic Clearance (CLint), μl/min/mg protein, calculated from the initial linear part of the compound disappearance curve.

Data set [2] addresses T1, human recombinant chemokine CCR8 receptor (Homo sapiens, UniProt P51685).
T1 construct: purchased Euroscreen ES-136-M; host or cells: CHO-K1 cells (transfected), membrane preparation
Briefly: CCL1 SPA Binding Assay. To be noted: inhibition of 125I CCL1 binding to CCR8 membranes from transfected CHO-K1 cells. As for the experimental part:
Membranes from CHO-K1 cells transfected with human recombinant chemokine CCR8 receptor (ES-136-M) were purchased from Euroscreen. Membrane preparations are stored at −70C in 7.5 mM Tris-Cl pH 7.5, 12.5 mM MgCl2, 0.3 mM EDTA, 1 mM EGTA, 250 mM sucrose until used.
The CCR8 membranes ([…]) were preincubated with Wheat Germ Agglutinin SPA beads (4.05 mg/ml) in assay buffer (50 mM HEPES, 1 mM CaCl2x2H2O, 5 mM MgCl2x6H2O, 75 mM NaCl, 0.1% BSA) at pH=7.4 for 2 hours on ice. A […] dose-response curve (final concentrations 50 μM, 16.7 μM, 5.6 μM, 1.9 μM, 0.62 μM, 0.21 μM, 0.069 μM, 0.023 μM) was prepared by diluting compounds by serial dilution 1:3 in DMSO. In the screening plate (Polystyrene NBS plates, Costar Corning 3604) 1 μl from the DMSO solutions of compounds was transferred into each well. 1 μl of DMSO was added to the blank control wells and 1 μl unlabeled CCL1 ([…]) was added to background control wells. 50 μl of the SPA bead-membrane mixture was added into each well. Finally, 50 μl ([…]) ^125I CCL1 (2000 Ci/mM) was added to each well. Plates were then incubated at RT with shaking (700 rpm) for 90 minutes followed by 30 minutes at RT without shaking. The plate was read in a Wallac MicroBeta counter for 2 minutes/well.

T1 sequence (P51685 whole entry): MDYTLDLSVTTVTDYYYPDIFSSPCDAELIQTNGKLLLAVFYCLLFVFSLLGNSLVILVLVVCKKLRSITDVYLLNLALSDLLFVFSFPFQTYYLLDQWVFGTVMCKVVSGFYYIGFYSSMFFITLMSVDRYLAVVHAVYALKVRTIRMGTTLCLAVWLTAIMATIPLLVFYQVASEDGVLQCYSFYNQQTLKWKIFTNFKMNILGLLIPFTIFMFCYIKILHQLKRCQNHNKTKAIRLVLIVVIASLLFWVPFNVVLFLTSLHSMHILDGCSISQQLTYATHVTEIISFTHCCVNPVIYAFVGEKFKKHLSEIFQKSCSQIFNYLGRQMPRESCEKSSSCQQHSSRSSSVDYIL

In the case of `O=C(O)Cc1cc(Cl)ccc1C(=O)N1CCC2(CCN(Cc3ccccc3Oc3ccccc3)CC2)CC1` [Example 2, (5-chloro-2-{[9-(2-phenoxybenzyl)-3,9-diazaspiro[5.5]undec-3-yl]carbonyl}phenyl)acetic Acid], the microsomal CLint at 2.5 μM in data set [1] was under 10 µL/min/mg. Besides, the IC50 in data set [2] was 196 nM.

As for `COc1ccccc1Oc1ccccc1CN1CCC2(CC1)CCN(C(=O)c1ccc(Cl)cc1CC(=O)O)CC2` [Example 5, [5-chloro-2-({9-[2-(2-methoxyphenoxy)benzyl]-3,9-diazaspiro[5.5]undec-3-yl}carbonyl)phenyl]acetic Acid], the microsomal CLint at 2.5 μM in data set [1] was under 10 µL/min/mg. Besides, the IC50 in data set [2] was 17 nM. Take `CC(C)COc1ccccc1CN1CCC2(CC1)CCN(C(=O)c1ccccc1CC(=O)O)CC2` [A, (2-{[9-(2-isobutoxybenzyl)-3,9-diazaspiro[5.5]undec-3-yl]carbonyl}phenyl)acetic Acid, reference compound]: the IC50 in data set [2] was 1060 nM. As to `COc1ccccc1Oc1ccccc1CN1CCC2(CC1)CCN(C(=O)c1ccccc1NC(=O)C(=O)O)CC2` [Example 7, {[2-({9-[2-(2-methoxyphenoxy)benzyl]-3,9-diazaspiro[5.5]undec-3-yl}carbonyl)phenyl]amino}(oxo)acetic Acid], in data set [1], the microsomal CLint at 2.5 μM is under 10 µL/min/mg. Further, the IC50 in data set [2] is 100 nM. For `COc1ccccc1Oc1cccc(CN2CCC3(CC2)CCN(C(=O)c2ccc(OCC(=O)O)cc2)CC3)c1` [Example 10, [4-({9-[3-(2-methoxyphenoxy)benzyl]-3,9-diazaspiro[5.5]undec-3-yl}carbonyl)phenoxy]acetic Acid] the same measures were under 10 µL/min/mg and 405 nM. In the same order, the values of `COc1ccccc1Oc1ccccc1CN1CCC2(CC1)CCN(C(=O)c1cc(Cl)c(Cl)cc1C(=O)O)CC2` [Example 6, 4,5-dichloro-2-({9-[2-(2-methoxyphenoxy)benzyl]-3,9-diazaspiro[5.5]undec-3-yl}carbonyl)benzoic Acid] are 16 µL/min/mg and 81 nM.

In the case of `CC(C)COc1ccccc1CN1CCC2(CC1)CCN(C(=O)c1ccccc1C(=O)O)CC2` [B, 2-{[9-(2-isobutoxybenzyl)-3,9-diazaspiro[5.5]undec-3-yl]carbonyl}benzoic Acid, reference compound], the IC50 in data set [2] came to 1370 nM. Consider `COc1ccccc1Oc1ccccc1CN1CCC2(CC1)CCN(C(=O)c1ccccc1CC(=O)O)CC2` [Example 4, [2-({9-[2-(2-methoxyphenoxy)benzyl]-3,9-diazaspiro[5.5]undec-3-yl}carbonyl)phenyl]acetic Acid], for which the microsomal CLint at 2.5 μM in data set [1] is under 10 µL/min/mg. In data set [2], the IC50 came out at 58 nM. For `O=C(O)Cc1ccccc1C(=O)N1CCC2(CCN(Cc3cccc(Oc4ccccc4)c3)CC2)CC1` [Example 3, (2-{[9-(3-phenoxybenzyl)-3,9-diazaspiro[5.5]undec-3-yl]carbonyl}phenyl)acetic Acid] the same measures were under 10 µL/min/mg and 144 nM. For `COc1ccccc1Oc1cccc(CN2CCC3(CC2)CCN(C(=O)c2ccc(Cl)cc2)CC3)c1` [Y, 3-(4-chlorobenzoyl)-9-[3-(2-methoxyphenoxy)benzyl]-3,9-diazaspiro[5.5]undecane, reference compound], in data set [1], the microsomal CLint at 2.5 μM was over 200 µL/min/mg. On to `COc1ccccc1Oc1cccc(CN2CCC3(CC2)CCN(C(=O)c2ccccc2CC(=O)O)CC3)c1` [Example 8, [2-({9-[3-(2-methoxyphenoxy)benzyl]-3,9-diazaspiro[5.5]undec-3-yl}carbonyl)phenyl]acetic Acid], for which the microsomal CLint at 2.5 μM in data set [1] is under 10 µL/min/mg. Besides, the IC50 in data set [2] was 42 nM. In the same order, the values of `O=C(O)Cc1ccccc1C(=O)N1CCC2(CCN(Cc3ccccc3Oc3ccccc3)CC2)CC1` [Example 1, (2-{[9-(2-phenoxybenzyl)-3,9-diazaspiro[5.5]undec-3-yl]carbonyl}phenyl)acetic Acid] are under 10 µL/min/mg and 643 nM. For `COc1ccccc1Oc1cccc(CN2CCC3(CC2)CCN(C(=O)c2ccccc2C(=O)O)CC3)c1` [Example 9, 2-({9-[3-(2-methoxyphenoxy)benzyl]-3,9-diazaspiro[5.5]undec-3-yl}carbonyl)benzoic Acid] the same measures were under 10 µL/min/mg and 71 nM. For `COc1ccccc1Oc1cccc(CN2CCC3(CC2)CCN(C(=O)c2ccccc2OCC(=O)O)CC3)c1` [Example 11, [2-({9-[3-(2-methoxyphenoxy)benzyl]-3,9-diazaspiro[5.5]undec-3-yl}carbonyl)phenoxy]acetic Acid] the same measures were under 10 µL/min/mg and 520 nM.

For orientation: IC50 means the concentration at which inhibition is half-maximal.

For the origin of these results see patent publication US20090118318A1, “Novel Diazaspiroalkanes and Their Use for Treatment of CCR8 Mediated Diseases” (priority 2005, published 2009).
